The values that follow come from patent US20230219957A1, “SMALL MOLECULE CB002-ANALOGES RESTORE THE P53 PATHWAY AND TARGET S-PHASE CHECKPOINT” (Brown University, priority 2020, published 2023).

Data set [1] deals with normal human WI38 lung fibroblast cells. Put plainly: Propidium iodide Sub-G1 analysis in normal cells. Particulars: forty-eight hours. Type of data set: cell-based. The method, then:
Apoptosis assay. Apoptotic cells were quantified by sub-G1 analysis. Cells were seeded at a density of 2.5×10^5to 5×10^5in a 6-well plate and treated forty-eight to seventy-two hours. After treatment, adherent cells were trypsinized and collected along with floating cells, washed with phosphate-buffered saline, and fixed in 70% ethanol. Cells were then incubated in a phosphate-citric acid buffer (0.2M Na2HPO4+0.1M citric acid, pH 7.8) at room temperature for five minutes, spun down, and resuspended for staining with 50 μg/mL propidium iodide (PI) in the presence of 250 μg/mL pancreatic ribonuclease (RNase A). Sub-G1 analyses were performed using an Epics Elite Epics flow cytometer (Coulter-Beckman). Propidium iodide and BrdU flow cytometry assay. Cells were seeded at a density of 5×10^5 in a 6-well plate and treated for forty-eight to seventy-two hours. After treatment, floating cells were collected, and adherent cells were trypsinized, pelleted, washed with phosphate-buffered saline, and fixed in 70% ethanol overnight. For propidium iodide (PI) based Sub-G1 apoptosis analysis, cells were spun down after fixation and resuspended in phosphate-citric acid buffer (0.2M Na2HPO4+0.1M Citric Acid, pH 7.8) at room temperature for five minutes. […] Samples were analyzed on an Epics Elite Epics flow cytometer (Coulter-Beckman).

In a further data set the test system is SW480 cells. The data set is described as follows: Microarray transcriptomic analysis with ingenuity pathway analysis. Type of data set: cell-based, human. Particulars: twelve hours treatment. The method, then: Microarray analysis. SW480 cells were seeded at a density of 1×10^6 in 10 cm dishes. After being adhered, the cells were treated with dimethyl sulfoxide vehicle control or CB002-analog #4. Floating cells were collected, and adherent cells were trypsinized at twelve hours of treatment. The cells were pelleted. According to manufacturer instructions, RNA was isolated from the cells using a Quick-RNA™ MiniPrep (#R1055, Zymo Research Irvine, Calif., USA). RNA quality was tested using an Agilent Bioanalyzer RNA kit. When the RNA quality was enough, RNA was amplified and labeled using the low RNA input linear amplification kit commercially available from Agilent Technologies, Santa Clara, Calif., USA. Labeled cDNA was hybridized onto Affymetrix Human Gene 2.0-ST array. Significant changes in gene expression were determined at 1.5-fold either up or down in dimethyl sulfoxide vehicle control versus CB002-analog #4.

For data set [2], the system named is isogenic HCT116 cell line panel. Put plainly: Cell-Titer glow cytotoxicity, potency comparison across the panel. Type of data set: cell-based, human. As to conditions: IC50 values, independently of HCT116 p53-status. The method, then: CellTiter-Glo® luminescent cell viability assay. Cells were seeded in 96-well plates at a density of 5×10^3 cells per well. 20 μL of CellTiter-Glo® Reagent was added directly to the wells, following the manufacturers protocol. The bioluminescence signal was determined using an IVIS imaging system, optionally at a period of 48-72 hours after treatment.
CB002-analog #4 is a potent anti-tumor agent in vitro and in vivo. The inventors focused on lead CB002-analog #4 and investigated its therapeutic index in vitro and in vivo. The inventors treated an isogenic HCT116 cell line panel with 100 μM CB002 or 25 μM CB002-analog #4 and established IC50 values by the Cell-Titer glow cytotoxicity assay. Across this panel, CB002-analog #4 has a 20-fold to 30-fold range in IC50 values, independently of the HCT116 p53-status.

Details of data set [3]: species or system mice. Particulars: in vivo, po, 50 mg/kg. How it is done: Drug efficacy using in vivo tumor xenografts. In vivo drug efficacy studies were performed on ten NSG female randomized mice per cohort. The mice had tested negative for any pathogen. Tumor inoculation was induced by subcutaneous injection in the left and right dorsal flank, each with a 150 μL suspension of 1-5×10^6 human colon cancer cells in phosphate-buffered saline with Matrigel (1:1). After tumor size reached 100 mm^3, mice were treated 3×/week with dimethyl sulfoxide vehicle or CB002-analog #4 via oral gavage (22-gauge needle) in a solution of 10% dimethyl sulfoxide, 20% Kolliphor® EL (Sigma cat. no. C5135), and 70% phosphate-buffered saline. Mouse weight and tumor measurements were recorded one-two times per week. Tumor volume was calculated as V=0.5*L*W^2, where L is length and W is the width of the tumor. At the end of the assay, mice were euthanized by CO2. All in vivo procedures were performed according to an approved Institutional Animal Care and Use Committee (IACUC) protocol.

For a further data set, the system named is SW480 shNoxa cells. Put plainly: Tumor xenograft efficacy in NSG mice, Noxa knockdown. Particulars: compared to vehicle control. It counts as in vivo. The method, then:
Knockdown expression of NOXA by lentivirus infection. A NOXA shRNA plasmid construct was amplified according to the manufacturers recommendation (TRC Lentiviral Human PMAIP1 shRNA, Dharmacon). Plasmid DNA was isolated using the PureLink® HiPure Plasmid Filter Maxiprep Kit (Invitrogen) according to the manufacturers instructions. Lentivirus production was performed by transfecting HEK293T cells at a density of 8×10^6 cells per 10-cm dish with 1.6 μg pMD2.G envelope plasmid, 3.2 μg psPAX2 packaging vector, 3.2 μg plasmid DNA, and 24 μL of Lipofectamine® Transfection reagent 2000 (Life Technologies) in a total volume of the reaction of 1 mL of antibiotic-free DMEM media for 6-10 hours. The media was then replaced with antibiotic-free DMEM. Lentiviral particles were collected between forty-eight to seventy-two hours. SW480 cells ([…] cells per well in a 12-well plate) were infected 1:1 (virus-containing media: antibiotic-free DMEM media, total volume 1 mL) for twenty-four hours. Then, the media was replaced with DMEM complete media for an additional twenty-four hours. […]
Drug efficacy using in vivo tumor xenografts. […] Mouse weight and tumor measurements were recorded one-two times per week. Tumor volume was calculated as V=0.5*L*W^2, where L is length and W is the width of the tumor. […]

Regarding `Cn1c(=O)c2[nH]c(Nc3cccc(C(F)(F)F)c3)nc2n(C)c1=O` [CB002-analog #4], in data set [1], the “sub-G1 in normal cells” value was “does not increase sub-G1”. In the data set with SW480 cells, the “p53 target genes Noxa, Puma, and DR5 expression” value is “upregulated”; the “p53 upstream regulator activation z-score (IPA)” value worked out at 3.3. Moreover, in data set [2], the “potency relative to CB002” value is reported as 20-30 times. Besides, the “tolerability by mouse body weights” value in data set [3] is “well-tolerated”. Moreover, the tumor volume entry with SW480 shNoxa cells is recorded as “did not differ in tumor volume”.
